# Measured values taken from patent US4022791A (priority 1975, dated 1977).
# How the values were obtained:
# mice [1] = settings: mouse, in vivo; for Tail Flick 2 hr (percentage of analgesia response) / Tail Flick .5 hr (percentage of analgesia response): ip
# Rats = test system: Rats; design: Rat Jump .5 hr (current at which the animal first jumps) / Rat Jump .5 hr, second value printed in parentheses / Rat Jump 2 hr (current at which the animal first jumps): unit not given here; settings: in vivo; for Rat Jump 2 hr (current at which the animal first jumps) / Rat Jump .5 hr (current at which the animal first jumps): ip
# mice [2] = assay: animal or person; format: in vivo, mouse; settings: mouse, in vivo, ip
# mice [3] = settings: mouse, in vivo; for Hot Plate 2 hr (percentage of mice showing analgesia) / Hot Plate .5 hr (percentage of mice showing analgesia): ip
# Wherever Hot Plate .5 hr (percentage of mice showing analgesia) is given: test concentration or dose not given here.
# Wherever Hot Plate 2 hr (percentage of mice showing analgesia) is given: test concentration or dose not given here.
# Wherever Tail Flick .5 hr (percentage of analgesia response) is given: test concentration or dose not given here.
# Wherever Tail Flick 2 hr (percentage of analgesia response) is given: test concentration or dose not given here.
# Wherever Tail Pinch .5 hr (percentage of mice showing analgesia) is given: test concentration or dose not given here.
# Wherever Tail Pinch 2 hr (percentage of mice showing analgesia) is given: test concentration or dose not given here.
Structure (SMILES),Tail Flick 2 hr (percentage of analgesia response) (mice [1]),Tail Flick .5 hr (percentage of analgesia response) (mice [1]),Rat Jump 2 hr (current at which the animal first jumps) (Rats),Rat Jump .5 hr (current at which the animal first jumps) (Rats),Tail Pinch 2 hr (percentage of mice showing analgesia) (mice [2]),Tail Pinch .5 hr (percentage of mice showing analgesia) (mice [2]),Hot Plate 2 hr (percentage of mice showing analgesia) (mice [3]),Hot Plate .5 hr (percentage of mice showing analgesia) (mice [3]),activity in the Tail Flick test (mice [1]),activity in the Rat Jump Test (Rats),activity in the Hot Plate test (mice [3])
CCC(=O)OC1CCN(CC2=Cc3c(Cl)ccc(OC)c3CC2)CC1,0,20,1.2,1.2,0,0,0,0,,,
COc1ccc(Cl)c2c1CCC(CN1CCC(O)CC1)=C2,0,0,1.2,1.2,0,0,0,0,,,
COc1ccc(Cl)c2c1CCC(CN1CCC(C(N)=O)CC1)=C2,0,70,0.6,0.6,0,0,70,90,,,
COc1ccc(Cl)c2c1CCC(CN1CCC(C(N)=O)(N3CCCCC3)CC1)=C2,,,1.6,1.2,,,,,,,
COc1ccc(Cl)c2c1CCC(CN1CCC(C)CC1)=C2,0,0,1.2,1.2,0,0,0,10,,,
COc1ccc(Cl)c2c1CCC(CN1CCN(CCO)CC1)=C2,0,10,1.2,1.2,0,40,20,50,,,
COc1ccc(Cl)c2c1CCC(CN1CCC(O)(c3ccccc3)CC1)=C2,0,30,1.2,1.2,0,0,0,50,,,
COc1ccc(N2CCN(CC3=Cc4c(Cl)ccc(OC)c4CC3)CC2)cc1,0,0,1.2,1.2,0,0,0,0,,,
CCOC(=O)N1CCN(CC2=Cc3c(Cl)ccc(OC)c3CC2)CC1,0,40,1.2,1.2,0,0,40,70,,,
CNC(=O)C1CCN(CC2=Cc3c(Cl)ccc(OC)c3CC2)CC1,0,40,1.2,1.2,0,0,0,60,,,
COc1ccc(Cl)c2c1CCC(CN1CCCC(C(N)=O)C1)=C2 (centres unmarked),0,0,2.2,1.6,0,0,0,0,,,
COc1ccc(Cl)c2c1CCC(CN1CCC(O)(c3ccc(Cl)cc3)CC1)=C2,0,0,1.6,1.2,0,0,0,20,,,
COc1ccc(Cl)c2c1CCC(CN1CCN(C)CC1)=C2,0,30,1.2,1.2,0,80,0,60,,,
COc1ccc(Cl)c2c1CCC(CN1CCN(c3ccc(Cl)cc3)CC1)=C2,0,0,1.2,1.2,0,0,0,10,,,
CCOC1(c2ccccc2)CCN(CC2=Cc3c(Cl)ccc(OC)c3CC2)CC1,0,10,1.2,1.2,20,0,0,50,,,
COc1ccc(Cl)c2c1CCC(CN1CCC(c3ccccc3)CC1)=C2,0,0,1.2,1.2,0,0,0,30,,,
COc1ccc(Cl)c2c1CCC(CN1CCN(c3cccc(C(F)(F)F)c3)CC1)=C2,0,0,1.2,1.2,0,0,0,10,,,
COc1ccc(Cl)c2c1CCC(CN1CCC(C(=O)N(C)C)CC1)=C2,,,1.2,1.2,,,,,,,
COc1ccc(Cl)c2c1CCC(CN1CCC(C(=O)N3CCOCC3)CC1)=C2,,,1.2,1.2,,,,,,,
"CN1CC[C@]23c4c5ccc(O)c4O[C@H]2[C@@H](O)C=C[C@H]3[C@H]1C5.O=S(=O)(O)O [Morphine Sulfate, reference compound]",100,100,,> 2.2,,,,,,,
COc1ccc(Cl)c2c1CCC(CN1CCCC1)=C2C [reference compound],,,,,,,,,marginal activity,inactive,marginal activity
